The values that follow are results of earlier work, collected in patent US20110294879A1, “METHOD OF TREATMENT OF FRAGILE X SYNDROME, DOWN'S SYNDROME, AUTISM AND RELATED DISORDERS” (XENOPORT, INC., priority 2010, published 2011).

The conditions of series [1]: humans.
Series [2] concerns subjects with FXS and comorbid autistic disorder.
In a further series the test system is Fmr KO mice. Conditions: Bear et al patents.

For the compound `Cc1nc2n(c(=O)c1CCN1CCC(c3noc4cc(F)ccc34)CC1)CCCC2` [risperidone], in the series with autistic children, the “social isolation and communication” value is recorded as “not improved”. Besides, in the series with autistic children (McCracken et al 2002), the “irritability subscale of the Aberrant Behavior Checklist and Clinical Global Impressions-Improvement” value is on record as “significant improvement”.

In the case of `CC(=O)NCCCS(=O)(=O)O` [acamprosate, 3-(Acetylamino)propylsulfonic acid], in series [1], the oral bioavailability entry is “about 11%”.

With `CC(=O)NCCCS(=O)(=O)O` [CAMPRAL, acamprosate calcium], the “adverse GI events” value in series [2] (fragile X subjects treated in the study) is “observed in the majority of fragile X subjects”. Further, in series [2] (subjects with FXS and comorbid autistic disorder, Erickson et al 2010), the “Clinical Global Impression (CGI-I)” value is reported as “significant symptomatic improvements”.

For `Cc1cccc(C#Cc2ccccc2)n1` [MPEP, 2-methyl-6-(phenylethynyl)-pyridine], in the series on Fmr KO mice, the “behavioral and developmental phenotypes” value is “reverse behavioral and developmental phenotypes”.
